Measured values published in patent publication US9326984B2, “Compounds and pharmaceutical compositions for treating disorders associated with the 5-HT1A and 5-HT2A receptors” (priority 2010, dated 2016).

What was measured:
[1] = biological target: T1, 5-HT1A receptors (Rattus norvegicus, UniProt P19327); assay: In vitro affinity (radioligand binding inhibition) assay, 3[H]-8-OH-DPAT, rat hippocampus; settings: for IC50: 3[H]-8-OH-DPAT 1 nM, 3-3000 nM in duplicate, read-out: 5-HT1A CI50; for IC50 / inhibition at 0.03 µM / inhibition at 0.1 µM / inhibition at 0.3 µM: rat hippocampus; for 5-HT2A/5-HT1A CI502A/CI501A: ratio of CI50 5-HT2A to CI50 5-HT1A; for 5-HT1A CI50 compared with the comparative compound: comparison in words/fold versus Flibanserin; for inhibition at 0.03 µM: 30 nM; for inhibition at 0.03 µM / inhibition at 0.1 µM / inhibition at 0.3 µM: read-out: 5-HT1A Inhibition Percentage; for inhibition at 0.1 µM: 100 nM; for inhibition at 0.3 µM: 300 nM
T1 construct: The assay tissue was rat hippocampus; from tissue; host or cells: rat hippocampus
T1 sequence (P19327 1-422): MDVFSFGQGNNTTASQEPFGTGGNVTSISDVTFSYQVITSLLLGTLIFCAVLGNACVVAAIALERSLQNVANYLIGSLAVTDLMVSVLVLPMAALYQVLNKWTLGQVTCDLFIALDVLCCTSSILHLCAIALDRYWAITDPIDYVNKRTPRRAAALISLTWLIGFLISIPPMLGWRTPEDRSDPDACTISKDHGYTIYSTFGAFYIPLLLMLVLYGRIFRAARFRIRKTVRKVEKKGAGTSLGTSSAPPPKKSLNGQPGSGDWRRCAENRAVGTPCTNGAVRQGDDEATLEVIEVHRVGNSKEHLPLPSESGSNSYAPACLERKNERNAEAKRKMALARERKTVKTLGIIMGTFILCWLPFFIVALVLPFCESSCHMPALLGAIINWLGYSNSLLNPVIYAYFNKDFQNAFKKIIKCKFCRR
Method: (§1) The determination of the activity of the synthesized compounds was conducted through assays assessing affinity with the 5-HT1A and 5-HT2A serotonin receptors. The assays used are based on the binding ratings of the substances being tested at different concentrations, compared to the affinity in the single concentration of the radioligands (markers) that have a specific affinity for these receptors.
(§2) These assays, known as binding assays and also known as inhibition experiments, are able to determine the affinity of a substance through the receptor, provided that this substance is soluble under the assay conditions.
(§3) In an inhibition experiment, the quantity of an inhibitor substance (non radioactive—sample or compound being tested) included in the incubation is the only variable, meaning that it is possible to determine for each test drug concentration, the binding inhibition percentage of the radioligand.
(§4) CI50 is a value defined as the concentration of an unbranded substance (test sample) required to inhibit the specific binding of the radioligand in 50% of the receptors.
(§5) The affinity assays with the 5-HT1A and 5-HT2A receptors of the compounds addressed by this invention were conducted by the Biochemical and Molecular Pharmacology Laboratory at the Biomedical Science Institute in Rio de Janeiro Federal University (UFRJ), using its own protocols.
(§6) […] The development of the experiment protocol to assess compounds with affinity for the 5-HT1A receptors was developed on the basis of the experiments conducted by Hall et al (Journal of Neurochemistry (1985) 44: 1685-1696); Mongeau et al (Brain Research (1992) 590: 229-238) and Peroutka (Journal of Neurochemistry (1986) 47: 529-540). The 5-HT2A receptors were based on the studies conducted by Johnson et al (Naunyn-Schmiedeberg's Arch. Pharmacol. (1996) 354 (2): 205-209); Leysen et al (Molecular Pharmacology (1982) 21: 301-314) and Nelson et al (Journal of Pharmacology and Experimental Therapeutics (1993) 265: 1272-1279).
The affinity with the 5-HT1A receptors was assayed by using 3[H]-8-OH-DPAT (3[H]-8-hydroxy-N,N-dipropyl-2-aminotetraline) (1 nM) as a ligand, and 5-HT (5-hydroxytiptamine-serotonin) (10 μM) as a non-specific ligand. The assay tissue was rat hippocampus.
(§7) In order to determine the affinity with the 5-HT2A receptors, 3[H]-ketanserin (1 nM) was used as a ligand and ketanserin (1 μM) as a non-specific ligand. The assay tissue was rat cortex. Table 1 below summarizes the CI50 values obtained for the inventive compounds presented in Examples 1 and 8. In order to determine the CI50 of these compounds, the inhibition assays were conducted using the compounds at concentrations of 3, 10, 30, 100, 300, 1000 and 3000 nM (in duplicate) for both receptors.

[2] = biological target: T2, 5-HT2A receptors (Rattus norvegicus, UniProt P14842); assay: In vitro affinity (radioligand binding inhibition) assay, 3[H]-ketanserin, rat cortex; settings: for IC50: 3[H]-ketanserin 1 nM, rat cortex, 3-3000 nM in duplicate, read-out: 5-HT2A CI50; for 5-HT2A CI50/affinity compared with the comparative compound: comparison in words versus Flibanserin (and Example 1); for inhibition at 0.3 µM / inhibition at 1 µM / inhibition at 3 µM: read-out: 5-HT2A Inhibition Percentage
T2 construct: The assay tissue was rat cortex; from tissue; host or cells: rat cortex
T2 sequence (P14842 whole entry): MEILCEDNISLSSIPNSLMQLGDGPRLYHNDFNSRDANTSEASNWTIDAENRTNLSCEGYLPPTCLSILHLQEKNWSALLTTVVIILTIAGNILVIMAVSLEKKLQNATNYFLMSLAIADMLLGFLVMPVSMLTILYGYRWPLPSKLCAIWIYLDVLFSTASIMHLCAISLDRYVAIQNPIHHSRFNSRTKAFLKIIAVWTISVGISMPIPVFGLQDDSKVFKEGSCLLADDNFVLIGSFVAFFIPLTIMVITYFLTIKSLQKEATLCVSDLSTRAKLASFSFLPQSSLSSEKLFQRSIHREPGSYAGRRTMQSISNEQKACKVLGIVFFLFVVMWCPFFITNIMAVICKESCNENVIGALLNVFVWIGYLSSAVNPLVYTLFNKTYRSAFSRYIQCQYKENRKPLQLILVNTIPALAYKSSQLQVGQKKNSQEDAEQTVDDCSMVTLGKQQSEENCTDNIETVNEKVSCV
Method: as §1, §2, §3, §4, §5, §6, §7

[3] = tested on: 5-HT receptors; assay: In vivo efficacy test: Serotonin Syndrome Model in rats (modified Irwin method); set-up: species or system rat; settings: 15 mg/kg intraperitoneal, observed 15, 30 and 60 minutes after administration
Method: For the efficacy assay, the compounds addressed by this invention were submitted to the modified Irwin assay. The assays were conducted by Porsolt, using a specific protocol for evaluation.
In order to determine the in vivo efficacy of the compounds addressed by this invention, the Serotonin Syndrome Model in rats was used. The model was based in the Irwin method (Psychopharmacologia (1968), 13: 222-257), adapted to assess the effects of seroton agonists pursuant to Martin et al (Journal of Pharmacol. Meth. (1985), 13: 193-200) and Ortman et al (Naunyn-Schmiedeberg's Arch. Pharmacol (1981), 316: 225-230).
Two animals from each group were assessed through a series of separate observations. Escitalopram was used as the positive control for the study.
Behavioral and physiological alterations as well as neurotoxicity symptoms, rectal temperature and pupil diameter were recorded.
Additionally, the specific signs related to the stimulation of the 5-HT receptors were observed and quantified, being: head twitches (HT), fore paw treading (FPT), flat body posture (FBP), hind limb splay (HLS), lower lip retraction (LLR) and spontaneous tail flicks (STF) (Straub).
The observations were conducted at 15, 30 and 60 minutes after administration of the compounds being tested.
The compounds were tested as set forth in Examples 1 and 7. As the comparative compound 1,3-dihydro-1-(2-(4-(3-(trifluoromethyl)phenyl)-1-piperazinyl)ethyl)-2H-benzimidizol-2-one (Flibanserin) was used. All the compounds were administered at a dose of 15 mg/kg, intraperitoneal.
The observations of the specific stimulation data of the 5-HT receptors by each compound are presented in the graph given in FIG. 1.

| SMILES | IC50 [1] [nM] | 5-HT2A/5-HT1A CI502A/CI501A [1] | IC50 [2] [nM] | signs of stimulation of the 5-HT receptors (HT, FPT, FBP, HLS, LLR, STF) [3] | 5-HT1A CI50 compared with the comparative compound [1] | 5-HT2A CI50/affinity compared with the comparative compound [2] | inhibition at 0.03 µM [1] [%] | inhibition at 0.1 µM [1] [%] | inhibition at 0.3 µM [2] [%] | inhibition at 1 µM [2] [%] | inhibition at 0.3 µM [1] [%] | inhibition at 3 µM [2] [%] |
| --- | --- | --- | --- | --- | --- | --- | --- | --- | --- | --- | --- | --- |
| O=c1[nH]c2ccccc2n1CCN1CCN(c2cccc(C(F)(F)F)c2)CC1 [Comparative Compound, 1.3-Dihydro-1-(2-(4-(3-(trifluoromethyl)phenyl)-1-piperazinyl)ethyl)-2H-benzimidizol-2-one, reference compound] | 47 | 9.6 | 453 | only one presented signs of stimulation of the 5-HT receptors, which were spontaneous tail flicks |  |  |  |  |  |  |  |  |
| O=c1c2ccccc2ncn1CCN1CCN(c2cccc(C(F)(F)F)c2)CC1 [Example 1, 3-(2-(4-(3-(trifluoromethyl)phenyl)piperazine-1-yl)ethyl)quinazoline-4 (3H)-one] | 47 | 12 | 570 | triggered spontaneous tail flicks (STF) | the same CI50 value as the comparative compound | a value slightly higher than the value obtained for the comparative compounds |  |  |  |  |  |  |
| Cc1ccccc1N1CCN(CCn2cnc3ccccc3c2=O)CC1 [Example 2, 3-(2-(4-o-tolylpiperazine-1-yl)ethyl)quinazoline-4 (3H)-one] |  |  |  |  |  |  | 21 | 51 | 61 | 82 |  |  |
| Cc1cccc(N2CCN(CCn3cnc4ccccc4c3=O)CC2)c1C [Example 3, 3-(2-(4-(2,3-dimethylphenyl)piperazine-1-yl)ethyl)quinazoline-4 (3H)-one] |  |  |  |  |  |  | 47 | 84 | 89 | 88 |  |  |
| O=c1c2ccccc2ncn1CCN1CCN(c2ccccc2Cl)CC1 [Example 4, 3-(2-(4-(2-chlorophenyl)piperazine-1-yl)ethyl)quinazoline-4 (3H)-one] |  |  |  |  |  |  | 22 | 84 | 48 | 77 |  |  |
| N#Cc1ccccc1N1CCN(CCn2cnc3ccccc3c2=O)CC1 [Example 5, 3-(2-(4-(2-cyanophenyl)piperazine-1-yl)ethyl)quinazoline-4 (3H)-one] |  |  |  |  |  |  | 12 | 49 | 38 | 78 |  |  |
| COc1ccccc1N1CCN(CCn2cnc3ccccc3c2=O)CC1 [Example 6, 3-(2-(4-(2-methoxyphenyl)piperazine-1-yl)ethyl)quinazoline-4 (3H)-one] |  |  |  |  |  |  | 38 | 66 | 43 | 63 |  |  |
| CCc1nc2ccccc2c(=O)n1CCN1CCN(c2cccc(C(F)(F)F)c2)CC1 [Example 7, 2-ethyl-3-(2-(4-(3-(trifluoromethyl)phenyl)piperazine-1-yl)ethyl)quinazoline-4 (3H)-one] | 253 | 2.7 | 707 | triggered fore paw treading (FPT) and more spontaneous tail flicks (STF) | five times greater | greater affinity than the comparison compound and the compound in Example 1 |  |  |  |  |  |  |
| CCc1nc2ccccc2c(=O)n1CCN1CCN(c2cccc(C)c2C)CC1 [Example 8, 3-(2-(4-(2,3-dimethylphenyl)piperazine-1-yl)ethyl)-2-ethylquinazoline-4 (3H)-one] |  |  |  |  |  |  | 26 | 76 | 67 | 86 | 77 | 94 |
| CCc1nc2ccccc2c(=O)n1CCN1CCN(c2ccccc2OC)CC1 [Example 9, 2-ethyl-3-(2-(4-(2-methoxyphenyl)piperazine-1-yl)ethyl)quinazoline-4 (3H)-one] |  |  |  |  |  |  | 17 | 46 | 13 | 46 | 69 | 78 |
| CCOc1ccccc1N1CCN(CCn2c(CC)nc3ccccc3c2=O)CC1 [Example 10, 2-ethyl-3-(2-(4-(2-ethoxyphenyl)piperazine-1-yl)ethyl)quinazoline-4 (3H)-one] |  |  |  |  |  |  | 26 | 51 | 8 | 27 | 79 | 58 |
| CCc1nc2ccccc2c(=O)n1CCN1CCN(c2ccccc2Cl)CC1 [Example 11, 3-(2-(4-(2-chlorophenyl)piperazine-1-yl)ethyl)-2-ethylquinazoline-4 (3H)-one] |  |  |  |  |  |  | 5 | 26 | 25 | 52 | 38 | 79 |
